{
  "source": "paper PMC3635961",
  "about": "“Identification of genes related to agarwood formation: transcriptome analysis of healthy and wounded tissues of Aquilaria sinensis” (BMC Genomics, 2013)",
  "assay_in_all_cases": "GC-MS of volatile products (SPME)",
  "type_in_all_cases": "biochemical",
  "settings_in_all_cases": "Tris-HCl pH 7.0, MgSO4, DTT, 10% glycerol, 30 C, 4 h; crude protein extract",
  "key": {"ASS1": {"molecular_target": "T1, ASS1 (Aquilaria sinensis, UniProt K9MQ67)", "T1 construct": "full-length ORF (1644 nt, 547 residues), pET-28a XhoI/BamHI, His-tag fusion, E. coli BL21(DE3); crude protein extract assayed", "T1 sequence (K9MQ67 entry or part of it)": "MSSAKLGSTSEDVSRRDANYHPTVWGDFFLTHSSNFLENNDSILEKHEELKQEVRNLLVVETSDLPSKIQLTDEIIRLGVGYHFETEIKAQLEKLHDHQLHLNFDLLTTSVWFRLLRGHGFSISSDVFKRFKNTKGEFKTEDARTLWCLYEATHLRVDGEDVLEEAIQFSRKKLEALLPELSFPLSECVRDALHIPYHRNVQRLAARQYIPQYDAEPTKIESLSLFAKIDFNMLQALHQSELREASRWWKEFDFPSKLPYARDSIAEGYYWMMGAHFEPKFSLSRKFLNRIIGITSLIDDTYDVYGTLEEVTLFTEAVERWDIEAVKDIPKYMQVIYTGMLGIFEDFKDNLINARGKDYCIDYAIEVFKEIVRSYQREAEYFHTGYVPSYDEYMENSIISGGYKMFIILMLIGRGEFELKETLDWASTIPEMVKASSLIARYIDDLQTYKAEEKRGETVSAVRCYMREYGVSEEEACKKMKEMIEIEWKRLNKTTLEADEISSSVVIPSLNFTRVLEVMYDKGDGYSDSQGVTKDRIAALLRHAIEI"}, "ASS3": {"molecular_target": "T2, ASS3 (Aquilaria sinensis, UniProt K9MPP8)", "T2 construct": "full-length ORF (1644 nt, 547 residues), pET-28a fusion protein, E. coli; crude protein extract assayed", "T2 sequence (K9MPP8 1-547)": "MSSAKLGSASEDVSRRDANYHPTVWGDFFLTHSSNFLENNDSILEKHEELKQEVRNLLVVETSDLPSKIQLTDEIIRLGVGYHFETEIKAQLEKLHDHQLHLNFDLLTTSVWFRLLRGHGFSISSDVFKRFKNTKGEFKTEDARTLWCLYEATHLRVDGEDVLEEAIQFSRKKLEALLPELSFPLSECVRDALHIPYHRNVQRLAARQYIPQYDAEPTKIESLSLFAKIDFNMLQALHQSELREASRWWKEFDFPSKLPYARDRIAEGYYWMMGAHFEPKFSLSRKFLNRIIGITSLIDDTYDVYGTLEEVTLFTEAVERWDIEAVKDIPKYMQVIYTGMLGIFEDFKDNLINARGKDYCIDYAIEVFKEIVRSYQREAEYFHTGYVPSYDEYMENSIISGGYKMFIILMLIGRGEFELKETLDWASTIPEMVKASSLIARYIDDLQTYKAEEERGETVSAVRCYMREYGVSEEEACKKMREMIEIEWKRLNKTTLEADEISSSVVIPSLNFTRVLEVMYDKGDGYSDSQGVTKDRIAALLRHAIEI"}, "ASS2": {"molecular_target": "T3, ASS2 (Aquilaria sinensis, UniProt K9MNV6)", "T3 construct": "full-length ORF (1644 nt, 547 residues), pET-28a fusion protein, E. coli; crude protein extract assayed", "T3 sequence (K9MNV6 1-547)": "T2 sequence (K9MPP8 1-547) with E454K, R481K"}},
  "note": "Positions count from the first letter of the chain named.",
  "data": [
    {"smiles": "CC(C)=CCC/C(C)=C/CC/C(C)=C/COP(=O)(O)OP(=O)(O)O", "note": "[FPP]", "values": [
      {"measurement": "GC-MS of volatile products (SPME)", "setting": "ASS1", "value": "ASS1-3 did not accept geranyl diphosphate or geranylgeranyl diphosphate as a substrate, converting only FPP"},
      {"measurement": "GC-MS of volatile products (SPME)", "setting": "ASS3", "value": "ASS1-3 did not accept geranyl diphosphate or geranylgeranyl diphosphate as a substrate, converting only FPP"},
      {"measurement": "GC-MS of volatile products (SPME)", "setting": "ASS2", "value": "ASS1-3 did not accept geranyl diphosphate or geranylgeranyl diphosphate as a substrate, converting only FPP"}
    ]}
  ]
}
